Results reported in BigSolDB 2.1.

In the case of `CS(=O)(=O)c1ccc([C@@H](O)[C@@H](CF)NC(=O)C(Cl)Cl)cc1`, the solubility (mole fraction) (in 2-ethylhexanol, 283.15 K) is reported as 0.000183, the solubility (mole fraction) (in 2-ethylhexanol, 288.15 K) is reported as 0.000254 and the solubility (mole fraction) (in 2-ethylhexanol, 293.15 K) is reported as 0.000319. For the same compound, the solubility (mole fraction) (in 2-ethylhexanol, 298.15 K) was 0.000383, the solubility (mole fraction) (in 2-ethylhexanol, 303.15 K) was 0.000521 and the solubility (mole fraction) (in 2-ethylhexanol, 308.15 K) was 0.000635. It also gave a solubility (mole fraction) (in 2-ethylhexanol, 313.15 K) of 0.000813, a solubility (mole fraction) (in 2-ethylhexanol, 318.15 K) of 0.00103 and a solubility (mole fraction) (in 2-ethylhexanol, 323.15 K) of 0.00129. For the same compound, the solubility (mole fraction) (in ethanol, 283.15 K) was 0.00151, the solubility (mole fraction) (in ethanol, 288.15 K) was 0.00196 and the solubility (mole fraction) (in ethanol, 293.15 K) was 0.00244. It also gave a solubility (mole fraction) (in ethanol, 298.15 K) of 0.00309, a solubility (mole fraction) (in ethanol, 303.15 K) of 0.00369 and a solubility (mole fraction) (in ethanol, 308.15 K) of 0.00461. It also gave a solubility (mole fraction) (in ethanol, 313.15 K) of 0.00562, a solubility (mole fraction) (in ethanol, 318.15 K) of 0.00702 and a solubility (mole fraction) (in ethanol, 323.15 K) of 0.00842. For the same compound, the solubility (mole fraction) (in isobutanol, 283.15 K) was 0.000293, the solubility (mole fraction) (in isobutanol, 288.15 K) was 0.000385 and the solubility (mole fraction) (in isobutanol, 293.15 K) was 0.000497. It also gave a solubility (mole fraction) (in isobutanol, 298.15 K) of 0.000613, a solubility (mole fraction) (in isobutanol, 303.15 K) of 0.000819 and a solubility (mole fraction) (in isobutanol, 308.15 K) of 0.00104. The solubility (mole fraction) (in isobutanol, 313.15 K) was 0.00137, the solubility (mole fraction) (in isobutanol, 318.15 K) was 0.0017 and the solubility (mole fraction) (in isobutanol, 323.15 K) was 0.00224. It also gave a solubility (mole fraction) (in isopentanol, 283.15 K) of 0.000487, a solubility (mole fraction) (in isopentanol, 288.15 K) of 0.000586 and a solubility (mole fraction) (in isopentanol, 293.15 K) of 0.000765. It also gave a solubility (mole fraction) (in isopentanol, 298.15 K) of 0.000959, a solubility (mole fraction) (in isopentanol, 303.15 K) of 0.00123 and a solubility (mole fraction) (in isopentanol, 308.15 K) of 0.00149. It also gave a solubility (mole fraction) (in isopentanol, 313.15 K) of 0.00191, a solubility (mole fraction) (in isopentanol, 318.15 K) of 0.00238 and a solubility (mole fraction) (in isopentanol, 323.15 K) of 0.00285. It also gave a solubility (mole fraction) (in isopropanol, 283.15 K) of 0.00061, a solubility (mole fraction) (in isopropanol, 288.15 K) of 0.00076 and a solubility (mole fraction) (in isopropanol, 293.15 K) of 0.00101. For the same compound, the solubility (mole fraction) (in isopropanol, 298.15 K) was 0.00133, the solubility (mole fraction) (in isopropanol, 303.15 K) was 0.00169 and the solubility (mole fraction) (in isopropanol, 308.15 K) was 0.00218. For the same compound, the solubility (mole fraction) (in isopropanol, 313.15 K) was 0.00278, the solubility (mole fraction) (in isopropanol, 318.15 K) was 0.00363 and the solubility (mole fraction) (in isopropanol, 323.15 K) was 0.00457. The solubility (mole fraction) (in n-butanol, 283.15 K) was 0.000512, the solubility (mole fraction) (in n-butanol, 288.15 K) was 0.000648 and the solubility (mole fraction) (in n-butanol, 293.15 K) was 0.000821. For the same compound, the solubility (mole fraction) (in n-butanol, 298.15 K) was 0.00112, the solubility (mole fraction) (in n-butanol, 303.15 K) was 0.0014 and the solubility (mole fraction) (in n-butanol, 308.15 K) was 0.00183. For the same compound, the solubility (mole fraction) (in n-butanol, 313.15 K) was 0.00236, the solubility (mole fraction) (in n-butanol, 318.15 K) was 0.00302 and the solubility (mole fraction) (in n-butanol, 323.15 K) was 0.00385. It also gave a solubility (mole fraction) (in n-propanol, 283.15 K) of 0.000974, a solubility (mole fraction) (in n-propanol, 288.15 K) of 0.00125 and a solubility (mole fraction) (in n-propanol, 293.15 K) of 0.00165. It also gave a solubility (mole fraction) (in n-propanol, 298.15 K) of 0.00215, a solubility (mole fraction) (in n-propanol, 303.15 K) of 0.00269 and a solubility (mole fraction) (in n-propanol, 308.15 K) of 0.00359. For the same compound, the solubility (mole fraction) (in n-propanol, 313.15 K) was 0.00437, the solubility (mole fraction) (in n-propanol, 318.15 K) was 0.00563 and the solubility (mole fraction) (in n-propanol, 323.15 K) was 0.00712. It also gave a solubility (mole fraction) (in propionic acid, 283.15 K) of 0.00027, a solubility (mole fraction) (in propionic acid, 288.15 K) of 0.000347 and a solubility (mole fraction) (in propionic acid, 293.15 K) of 0.000447. The solubility (mole fraction) (in propionic acid, 298.15 K) was 0.000562, the solubility (mole fraction) (in propionic acid, 303.15 K) was 0.00073 and the solubility (mole fraction) (in propionic acid, 308.15 K) was 0.000961. The solubility (mole fraction) (in propionic acid, 313.15 K) was 0.00123, the solubility (mole fraction) (in propionic acid, 318.15 K) was 0.0016 and the solubility (mole fraction) (in propionic acid, 323.15 K) was 0.00211.
